# Reference: patent publication US7138361B2, “Herbicidal heterocycles” (E. I. du Pont de Nemours and Company, priority 2000, dated 2006)
# Tests used:
# Assay type in all cases: in vivo
# [1] = tested on: Surinam grass (Brachiaria decumbens); experiment: Test B postemergence; settings: 13 to 15 days
# Method in brief: (§1)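 Preemergence: seeds planted and treated with test chemicals in non-phytotoxic solvent with surfactant; postemergence on plants 2–18 cm (1- to 4-leaf stage). Kept in greenhouse 13–15 days, then visually rated against controls on a 0 (no effect) to 100 (complete control) scale.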
# [2] = tested on: barnyardgrass (Echinochloa crus-galli); experiment: Test B postemergence; settings: 13 to 15 days
# Method in brief: as §1
# [3] = tested on: blackgrass (Alopecurus myosuroides); experiment: Test B postemergence; settings: 13 to 15 days
# Method in brief: as §1
# [4] = tested on: cocklebur (Xanthium strumarium); experiment: Test B postemergence; settings: 13 to 15 days
# Method in brief: as §1
# corn (Zea mays) [5] = experiment: Test B postemergence; settings: 13 to 15 days
# Method in brief: as §1
# [6] = tested on: crabgrass (Digitaria sanguinalis); experiment: Test B postemergence; settings: 13 to 15 days
# Method in brief: as §1
# [7] = tested on: giant foxtail (Setaria faberii); experiment: Test B postemergence; settings: 13 to 15 days
# Method in brief: as §1
# [8] = tested on: lambsquarters (Chenopodium album); experiment: Test B postemergence; settings: 13 to 15 days
# Method in brief: as §1
# [9] = tested on: morning glory (Ipomoea hederacea); experiment: Test B postemergence; settings: 13 to 15 days
# Method in brief: as §1
# [10] = tested on: pigweed (Amaranthus retroflexus); experiment: Test B postemergence; settings: 13 to 15 days
# Method in brief: as §1
# [11] = tested on: velvetleaf (Abutilon theophrasti); experiment: Test B postemergence; settings: 13 to 15 days
# Method in brief: as §1
# [12] = tested on: wheat (Triticum aestivum); experiment: Test B postemergence; settings: 13 to 15 days
# Method in brief: as §1
# wild oat (Avena fatua) = experiment: Test B postemergence; settings: 13 to 15 days
# Method in brief: as §1
# [13] = tested on: Surinam grass (Brachiaria decumbens); experiment: Test B preemergence
# Method in brief: as §1
# [14] = tested on: barnyardgrass (Echinochloa crus-galli); experiment: Test B preemergence
# Method in brief: as §1
# [15] = tested on: cocklebur (Xanthium strumarium); experiment: Test B preemergence
# Method in brief: as §1
# corn (Zea mays) [16] = experiment: Test B preemergence
# Method in brief: as §1
# [17] = tested on: crabgrass (Digitaria sanguinalis); experiment: Test B preemergence
# Method in brief: as §1
# [18] = tested on: giant foxtail (Setaria faberii); experiment: Test B preemergence
# Method in brief: as §1
# [19] = tested on: lambsquarters (Chenopodium album); experiment: Test B preemergence
# Method in brief: as §1
# [20] = tested on: morning glory (Ipomoea hederacea); experiment: Test B preemergence
# Method in brief: as §1
# [21] = tested on: pigweed (Amaranthus retroflexus); experiment: Test B preemergence
# Method in brief: as §1
# rice (Oryza saliva) [22] = experiment: Test B preemergence
# Method in brief: as §1
# [23] = tested on: velvetleaf (Abutilon theophrasti); experiment: Test B preemergence
# Method in brief: as §1
# [24] = tested on: barnyardgrass (Echinochloa crus-galli); experiment: Test B flooded paddy test; settings: Rate 1000 g/ha, scale of 0 to 100 where 0 is no effect and 100 is complete control, visually evaluated after 13 to 15 days
# Method in brief: (§2)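 Rice, smallflower flatsedge, duck salad and barnyardgrass grown to 2-leaf stage in flooded paddy and treated with test chemicals. Plants kept in greenhouse 13 to 15 days, then visually rated against controls. Scale 0 (no effect) to 100 (complete control).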
# [25] = tested on: duck salad (Heteranthera limosa); experiment: Test B flooded paddy test; settings: Rate 1000 g/ha, scale of 0 to 100 where 0 is no effect and 100 is complete control, visually evaluated after 13 to 15 days
# Method in brief: as §2
# rice (Oryza saliva) [26] = experiment: Test B flooded paddy test; settings: Rate 1000 g/ha, scale of 0 to 100 where 0 is no effect and 100 is complete control, visually evaluated after 13 to 15 days
# Method in brief: as §2
# [27] = tested on: smallflower flatsedge (Cyperus difformis); experiment: Test B flooded paddy test; settings: Rate 1000 g/ha, scale of 0 to 100 where 0 is no effect and 100 is complete control, visually evaluated after 13 to 15 days
# Method in brief: as §2
# [28] = tested on: barnyardgrass (Echinochloa crus-galli); experiment: Test C flooded paddy test; settings: for Barnyardgrass plant response rating: Flooded Paddy, scale 0 to 100, 0 no effect, 100 complete control; for Plant response rating, Barnyardgrass: flooded paddy test, scale 0 to 100 (0 no effect, 100 complete control)
# Method in brief: (§3)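 Each species was cultivated to 2 leaves in flooded paddy pots, then treated. After a greenhouse period of 12–14 days, the plants were scored visually relative to controls from 0 (no effect) to 100 (complete control).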
# [29] = tested on: duck salad (Heteranthera limosa); experiment: Test C flooded paddy test; settings: for Ducksalad plant response rating: Flooded Paddy, scale 0 to 100, 0 no effect, 100 complete control; for Plant response rating, Ducksalad: flooded paddy test, scale 0 to 100 (0 no effect, 100 complete control)
# Method in brief: as §3
# rice (Oryza saliva) [30] = experiment: Test C flooded paddy test; settings: for Rice plant response rating: Flooded Paddy, scale 0 to 100, 0 no effect, 100 complete control; for Plant response rating, Rice: flooded paddy test, scale 0 to 100 (0 no effect, 100 complete control)
# Method in brief: as §3
# [31] = tested on: smallflower flatsedge (Cyperus difformis); experiment: Test C flooded paddy test; settings: for Flatsedge plant response rating: Flooded Paddy, scale 0 to 100, 0 no effect, 100 complete control; for Plant response rating, Flatsedge: flooded paddy test, scale 0 to 100 (0 no effect, 100 complete control)
# Method in brief: as §3
# [32] = Rate 125 g/ha, scale 0 (no effect) to 100 (complete control)
# [33] = Rate 500 g/ha, scale 0 to 100, 0 is no effect, 100 is complete control
# [34] = Preemergence, Rate 500 g/ha, scale 0 to 100, 0 no effect, 100 complete control
# [35] = preemergence, Rate 125 g/ha, scale of 0 to 100 where 0 is no effect and 100 is complete control, 13 to 15 days
compound,measurement,setting,value
CC(C)(C)c1ccn(C2CCN(c3cc(C(F)(F)F)cc(C(F)(F)F)c3)C2=O)n1 (centres unmarked) [Compound 54],"Plant response rating, Surinam grass",[1]; [32],0
same,"Plant response rating, Surinam grass",[1]; [33],0
same,"Plant response rating, Barnyardgrass",[2]; [32],0
same,"Plant response rating, Barnyardgrass",[2]; [33],0
same,"Plant response rating, Blackgrass",[3]; [32],0
same,"Plant response rating, Blackgrass",[3]; [33],0
same,"Plant response rating, Cocklebur",[4]; [32],0
same,"Plant response rating, Cocklebur",[4]; [33],20
same,"Plant response rating, Corn",corn (Zea mays) [5]; [32],0
same,"Plant response rating, Corn",corn (Zea mays) [5]; [33],0
same,"Plant response rating, Crabgrass",[6]; [32],0
same,"Plant response rating, Crabgrass",[6]; [33],0
same,"Plant response rating, Foxtail, Giant",[7]; [32],0
same,"Plant response rating, Foxtail, Giant",[7]; [33],0
same,"Plant response rating, Lambsquarters",[8]; [32],0
same,"Plant response rating, Lambsquarters",[8]; [33],30
same,"Plant response rating, Morningglory",[9]; [32],0
same,"Plant response rating, Morningglory",[9]; [33],20
same,"Plant response rating, Pigweed",[10]; [32],0
same,"Plant response rating, Pigweed",[10]; [33],0
same,"Plant response rating, Velvetleaf",[11]; [32],0
same,"Plant response rating, Velvetleaf",[11]; [33],0
same,"Plant response rating, Wheat",[12]; [32],0
same,"Plant response rating, Wheat",[12]; [33],0
same,"Plant response rating, Wild Oat",wild oat (Avena fatua); [32],0
same,"Plant response rating, Wild Oat",wild oat (Avena fatua); [33],0
same,"Plant response rating, Surinam grass",[13]; [34],0
same,"Plant response rating, Surinam grass",[13]; [35],0
same,"Plant response rating, Barnyardgrass",[14]; [34],0
same,"Plant response rating, Barnyardgrass",[14]; [35],0
same,"Plant response rating, Cocklebur",[15]; [34],0
same,"Plant response rating, Cocklebur",[15]; [35],0
same,"Plant response rating, Corn",corn (Zea mays) [16]; [34],0
same,"Plant response rating, Corn",corn (Zea mays) [16]; [35],0
same,"Plant response rating, Crabgrass",[17]; [34],0
same,"Plant response rating, Crabgrass",[17]; [35],0
same,"Plant response rating, Foxtail, Giant",[18]; [34],0
same,"Plant response rating, Foxtail, Giant",[18]; [35],0
same,"Plant response rating, Lambsquarters",[19]; [34],0
same,"Plant response rating, Lambsquarters",[19]; [35],0
same,"Plant response rating, Morningglory",[20]; [34],0
same,"Plant response rating, Morningglory",[20]; [35],0
same,"Plant response rating, Pigweed",[21]; [34],0
same,"Plant response rating, Pigweed",[21]; [35],0
same,"Plant response rating, Rice",rice (Oryza saliva) [22]; [34],0
same,"Plant response rating, Rice",rice (Oryza saliva) [22]; [35],0
same,"Plant response rating, Velvetleaf",[23]; [34],0
same,"Plant response rating, Velvetleaf",[23]; [35],0
same,"Plant response rating, Barnyardgrass",[24],80
same,"Plant response rating, Ducksalad",[25],30
same,"Plant response rating, Rice",rice (Oryza saliva) [26],0
same,"Plant response rating, Flatsedge",[27],90
same,Barnyardgrass plant response rating,[28]; Rate 250 g/ha,20
same,Barnyardgrass plant response rating,[28]; Rate 500 g/ha,20
same,"Plant response rating, Barnyardgrass",[28]; Rate 62 g/ha,0
same,"Plant response rating, Barnyardgrass",[28]; Rate 125 g/ha,0
same,Ducksalad plant response rating,[29]; Rate 250 g/ha,0
same,Ducksalad plant response rating,[29]; Rate 500 g/ha,0
same,"Plant response rating, Ducksalad",[29]; Rate 62 g/ha,0
same,"Plant response rating, Ducksalad",[29]; Rate 125 g/ha,0
same,Rice plant response rating,rice (Oryza saliva) [30]; Rate 250 g/ha,0
same,Rice plant response rating,rice (Oryza saliva) [30]; Rate 500 g/ha,0
same,"Plant response rating, Rice",rice (Oryza saliva) [30]; Rate 62 g/ha,0
same,"Plant response rating, Rice",rice (Oryza saliva) [30]; Rate 125 g/ha,0
same,Flatsedge plant response rating,[31]; Rate 250 g/ha,0
same,Flatsedge plant response rating,[31]; Rate 500 g/ha,80
same,"Plant response rating, Flatsedge",[31]; Rate 62 g/ha,0
same,"Plant response rating, Flatsedge",[31]; Rate 125 g/ha,0
